From patent US8252832B2, “Kinesin inhibitors as cancer therapeutics” (Novartis AG, priority 2007, dated 2012) come the findings set out here.

What all share (assay): LDH release assay
What all share (format): cell-based
Background: Release of lactate dehydrogenase indicates damage to the cell membrane.

One assay deals with HCT-116. The conditions noted are these: Homo sapiens. The text has this:
(§1) Identification of tumor types that are the most sensitive to the KSP inhibitors of the present invention can be accomplished using an unbiased approach that uses several cell-based assays. The assays chosen were as follows: • CellTiter-Glo®. This is an assay designed to measure ATP concentration in a cell culture, and can be correlated to cell number. Briefly CellTiter-Glo® (Promega Corporation) is a homogeneous method using the single CellTiter-Glo® reagent to detect ATP wherein ATP in the assay drives the activity of a thermostable luciferase to create a luminescent signal which can then be measured and correlated with the number of viable cells. Briefly, for adherent cells, 1,000 to 5,000 cells/well were plated in 96-well plates (100 μl/well) and let to adhere for 24 hours before being treated with drug. For non-adherent cells, 1,000 to 10,000 cells/well were plated in 96-well plates (100 μl/well) and immediately treated with drug. Drug dilutions were prepared in DMSO at 1000 times the final concentration. These dilutions were then diluted 1/100 in growth media before being added to the cells (11 μl/well) to achieve the desired final concentration. After 48 h in a 37° C. tissue culture incubator, the plates were processed for the CellTiter-Glo®assay according to the manufacturer's instructions. Protocol for a 72 hour cell proliferation assay: The 72 hour assay was performed the same way as the 48 hour assay except for the following modifications: For adherent cells, 500 to 5,000 cells/well were plated in 96-well plates (90 μl/well cell growth media) and left to adhere for 24 hours before being treated with drug. For non-adherent cells, 1,000 to 10,000 cells/well were plated in 96-well plates (90 μl/well cell growth media) and immediately treated with drug. Data values presented represent the concentration of test compound required for a 50% reduction in growth. • LDH release. The Cytotoxicity Detection KitPLUS (LDH) assay (Roche Diagnostics, Manheim, Germany) measures the amount of LDH released in the media by dying cells; LDH catalyzes the conversion of lactate into pyruvate. The enzymatic reaction is coupled to a chemical reaction that uses a tetrazolium salt to form a formazan that is red and can be detected by its absorbance at 490 nm. This assay measures the amount of cell death after drug treatment. Cells were plated at 10,000 cells/well in 96-well plates (100 μl/well). Adherent cells were let to adhere for 24 hours before being treated with drug, whereas non-adherent cells were immediately treated with drug. Drug dilutions were prepared in DMSO at 1000 times the final concentration. These dilutions were then diluted 1/100 in growth media before being added to the cells (11 μl/well) to achieve the desired final concentration. […] The media only values were subtracted from all the data points before analysis. Data values presented correspond to the compound concentration wherein LDH output is at half maximal level. • Caspase-Glo® 3/7. The Caspase-Glo® 3/7 Assay (Promega Corporation) is a homogeneous luminescent assay that measures caspase-3/7 activities. The assay provides a proluminescent caspase-3/7 DEVD-aminoluciferin substrate and a thermostable luciferase in a reagent optimized for caspase-3/7 activity, luciferase activity and cell lysis. Adding the single Caspase-Glo® 3/7 Reagent results in cell lysis, followed by caspase cleavage of the substrate. This liberates free aminoluciferin, which is consumed by the luciferase, generating a luminescent signal. The signal is proportional to caspase-3/7 activity. Data values presented correspond to the compound concentration wherein caspase 3/7 activity is at half maximal level.

The subject of another assay is HT29. The conditions noted are these: Homo sapiens, HT-29.
Description: as §1

The next assay deals with T47-D. The conditions noted are these: Homo sapiens, T47D.
Description: as §1

For the molecule `CC(C)(C)[C@H](c1nc(-c2cc(F)ccc2F)cn1Cc1ccccc1)N(CC[C@H](N)CF)C(=O)CO` [Compound IIa], the EC50 (in general, the midpoint of the concentration-response curve) in the assay with HCT-116 (HCT-116, 24 h) came to 60 pM; with HCT-116 (HCT-116, 48 h) it was 100 pM; in the assay with HCT-116 (HCT-116, 72 h), 100 pM; with HT29 (HT29, 48 h), 350 pM; in the assay on HT29 (HT29, 72 h) it was 270 pM; with T47-D (48 h), 320 pM. Also, the EC50 in the assay with T47-D (72 h) was 330 pM.
